From publication PMC12794188, “Maternal–Fetal Transfer and Toxicokinetics of 2,2′,5,5′-Tetrachlorobiphenyl, [^14C]-PCB52, Following Intratracheal Administration” (Chemical Research in Toxicology, 2025)

Test: Toxicokinetics and tissue disposition of total [14C] radioactivity after a single intratracheal dose of [14C]-PCB52 (0.157 mg/kg) in pregnant rats at GD 11±1
Format: in vivo, Sprague–Dawley rats
Method: Female Sprague–Dawley rats (8 weeks old) weighing 237–269.7 g (mean = 247.5 g) (Envigo RMS, LLC, Indianapolis, IN) were used for this study. All animal experiments were performed following the protocols evaluated and approved by the University of Iowa Institutional Animal Care and Use Committee (approval number 3091097). After arrival, the animals were acclimated for 7 days. The animals were housed in a light and temperature-controlled environment with ad libitum access to food and water during quarantine and throughout the study. Timed pregnancy was achieved by harem mating. , Briefly, one male and two female rats were placed together in the evening and checked for vaginal plug the following day. If vaginal plug was present, the male was removed from the breeding cage, and the gestation day 0 (GD 0), 0-day post coitum was assigned. Pregnancies were confirmed by ultrasound scan at GD 9. The dams were exposed at GD 11 (±1 day) to capture the period of early organogenesis and hormonal function, which falls within week 3 of human embryonic development. ,− On the day of the experiment, pregnant rats were intratracheally administered an average of 40 μg (range, 35–45 μg) of [^14C]-PCB52 in 100 μL of exposure solution. Although the dose used in this study exceeded the tolerable daily intake (TDI) of PCBs for healthy individuals, which is 1.6 μg per day for an individual weighing 80 kg, the use of higher acute doses has been established in toxicological studies intended for risk assessment. The intratracheal instillation method was chosen for administering [^14C]-PCB52 to represent inhalation exposures, capture exhaled concentration, and efficiently utilize the limited availability of the cost-intensive radiolabeled PCB52. , Although inhalation exposure would better represent real-world exposures to airborne LC-PCBs, it would not allow us to accurately measure the amount of PCB52 exhaled into the air after exposure and is experimentally infeasible. […] All intratracheal instillations were done under light anesthesia, achieved using a 4% isoflurane concentration via a Fortec vaporizer (Cyprane, Keighley, UK). The animals recovered from anesthesia within 1 min. Subsequently, the animals were housed within a cylindrical glass chamber measuring 2 L in volume, equipped with glass drainage mechanisms to facilitate urine collection and a metallic screen to segregate urine from feces (as in Figure S1). Air was drawn from the chamber at 6.0 L/min through a cartridge containing the XAD-2 polymeric resin to capture any exhaled [^14C]-PCB52. For periods longer than 24 h postexposure, exposed dams were placed in a metabolic cage, which was fitted with a cartridge containing XAD-2 to capture exhaled [^14C]-PCB52 as in other end points.
Maternal blood, urine, and feces samples were collected immediately before and at 0.21, 1.67, 12, 24, 48, and 96 h after lung dosing. The exposed dams were euthanized using 4% isoflurane, followed by cervical dislocation and exsanguination via a cardiac puncture. Euthanasia was consistently performed during the light cycle. Dams’ fur was wiped and analyzed for radioactivity. Using the retro-orbital blood collection method, 0.5–1.5 mL ([…] of an exposed pregnant rat’s body weight) of blood sample was collected from each of the dams until the individual dams were necropsied for whole-body tissue harvesting. At the end of the exposure period, the chamber’s interior walls were rinsed separately with water and acetone/hexane (25 – 45 mL) and wiped to measure residues. From the collected whole blood samples, 100 μL were aliquoted into three vials each, and the remaining blood was allowed to clot at room temperature before being centrifuged to yield serum. The placentas, developing fetuses, and whole-body tissue samples were harvested immediately before exposure and at 0.21, 1.67, 12, 24, and 96 h postexposure. […]

[1] = Salivary gland, 0.21 h post-exposure
[2] = Salivary gland, 1.67 h post-exposure
[3] = Salivary gland, 12 h post-exposure
[4] = Salivary gland, 24 h post-exposure
[5] = Salivary gland, 96 h post-exposure
[6] = mammary gland/MS (maternal serum)
[7] = ratios of toxicokinetic parameters

Clc1ccc(Cl)c(-c2cc(Cl)ccc2Cl)c1 [PCB52, 2,2′,5,5′-Tetrachlorobiphenyl]
Percent tissue distribution (Ovary, 0.21 h post-exposure): 0.20% | Conc. per mg wet tissue (Ovary, 1.67 h post-exposure): 7.08 dpm/mg | Percent tissue distribution (Ovary, 1.67 h post-exposure): 0.08% | Conc. per mg wet tissue (Ovary, 12 h post-exposure): 1.61 dpm/mg | Percent tissue distribution (Ovary, 12 h post-exposure): 0.02% | Conc. per mg wet tissue (Ovary, 24 h post-exposure): 5.24 dpm/mg | Percent tissue distribution (Ovary, 24 h post-exposure): 0.05% | Percent tissue distribution (Ovary, 96 h post-exposure): 0.02% | AUC_%Extrap (Pancreas): 37.26% | Terminal elimination half-life (t1/2) (Pancreas): 67.74 h | Conc. per mg wet tissue (Pancreas, 0.21 h post-exposure): 14.81 dpm/mg | Percent tissue distribution (Pancreas, 0.21 h post-exposure): 0.91% | Conc. per mg wet tissue (Pancreas, 1.67 h post-exposure): 4.88 dpm/mg | Percent tissue distribution (Pancreas, 1.67 h post-exposure): 0.39% | Conc. per mg wet tissue (Pancreas, 12 h post-exposure): 1.83 dpm/mg | Percent tissue distribution (Pancreas, 12 h post-exposure): 0.07% | Conc. per mg wet tissue (Pancreas, 24 h post-exposure): 5.17 dpm/mg | Percent tissue distribution (Pancreas, 24 h post-exposure): 0.30% | Conc. per mg wet tissue (Pancreas, 96 h post-exposure): 38.84 dpm/mg | Percent tissue distribution (Pancreas, 96 h post-exposure): 0.14% | Tmax (Pituitary gland): 96 h | AUC_%Extrap (Rectal Amp.): 62.17% | Terminal elimination half-life (t1/2) (Rectal Amp.): 133.61 h | AUC_%Extrap (Salivary gland): 44.09% | Terminal elimination half-life (t1/2) (Salivary gland): 84.60 h | Tmax (Salivary gland): ≤ 0.21 h | Conc. per mg wet tissue [1]: 8.48 dpm/mg | Percent tissue distribution [1]: 0.39% | Conc. per mg wet tissue [2]: 2.93 dpm/mg | Percent tissue distribution [2]: 0.18% | Conc. per mg wet tissue [3]: 1.44 dpm/mg | Percent tissue distribution [3]: 0.04% | Conc. per mg wet tissue [4]: 2.06 dpm/mg | Percent tissue distribution [4]: 0.06% | Conc. per mg wet tissue [5]: 0.34 dpm/mg | Percent tissue distribution [5]: 0.04% | AUC_%Extrap (Skin): 30.85% | Terminal elimination half-life (t1/2) (Skin): 58.90 h | AUC_%Extrap (Small Intestine): 25.66% | Terminal elimination half-life (t1/2) (Small Intestine): 47.33 h | AUC_%Extrap (Spleen): 35.06% | Terminal elimination half-life (t1/2) (Spleen): 55.79 h | Conc. per mg wet tissue (Spleen, 0.21 h post-exposure): 13.12 dpm/mg | Percent tissue distribution (Spleen, 0.21 h post-exposure): 0.29% | Conc. per mg wet tissue (Spleen, 1.67 h post-exposure): 3.05 dpm/mg | Percent tissue distribution (Spleen, 1.67 h post-exposure): 0.12% | Conc. per mg wet tissue (Spleen, 12 h post-exposure): 2.62 dpm/mg | Percent tissue distribution (Spleen, 12 h post-exposure): 0.04% | Conc. per mg wet tissue (Spleen, 24 h post-exposure): 5.75 dpm/mg | Percent tissue distribution (Spleen, 24 h post-exposure): 0.07% | Conc. per mg wet tissue (Spleen, 96 h post-exposure): 0.87 dpm/mg | Percent tissue distribution (Spleen, 96 h post-exposure): 0.03% | AUC_%Extrap (Stomach): 15.03% | Terminal elimination half-life (t1/2) (Stomach): 32.02 h | Tmax (Stomach): ≤ 0.21 h | Conc. per mg wet tissue (Stomach, 0.21 h post-exposure): 36.55 dpm/mg | Percent tissue distribution (Stomach, 0.21 h post-exposure): 0.71% | Conc. per mg wet tissue (Stomach, 1.67 h post-exposure): 17.01 dpm/mg | Percent tissue distribution (Stomach, 1.67 h post-exposure): 0.23% | Conc. per mg wet tissue (Stomach, 12 h post-exposure): 4.80 dpm/mg | Percent tissue distribution (Stomach, 12 h post-exposure): 0.33% | Conc. per mg wet tissue (Stomach, 24 h post-exposure): 6.56 dpm/mg | Percent tissue distribution (Stomach, 24 h post-exposure): 0.44% | Conc. per mg wet tissue (Stomach, 96 h post-exposure): 2.28 dpm/mg | Percent tissue distribution (Stomach, 96 h post-exposure): 0.10% | AUC_%Extrap (Thymus): 25.14% | Terminal elimination half-life (t1/2) (Thymus): 53.40 h | AUC_%Extrap (Thyroid): 12.95% | Terminal elimination half-life (t1/2) (Thyroid): 37.74 h | Conc. per mg wet tissue (Tongue, 0.21 h post-exposure): 0.16 dpm/mg | Percent tissue distribution (Tongue, 0.21 h post-exposure): 0.67% | Conc. per mg wet tissue (Tongue, 1.67 h post-exposure): 4.42 dpm/mg | Percent tissue distribution (Tongue, 1.67 h post-exposure): 0.0003% | Conc. per mg wet tissue (Tongue, 12 h post-exposure): 1.08 dpm/mg | Percent tissue distribution (Tongue, 12 h post-exposure): 0.06% | Conc. per mg wet tissue (Tongue, 24 h post-exposure): 1.03 dpm/mg | Percent tissue distribution (Tongue, 24 h post-exposure): 0.05% | Conc. per mg wet tissue (Tongue, 96 h post-exposure): 0.16 dpm/mg | Percent tissue distribution (Tongue, 96 h post-exposure): 0.01% | Conc. per mg wet tissue (Trachea, 0.21 h post-exposure): 142.06 dpm/mg | Percent tissue distribution (Trachea, 0.21 h post-exposure): 0.83% | Conc. per mg wet tissue (Trachea, 1.67 h post-exposure): 40.98 dpm/mg | Percent tissue distribution (Trachea, 1.67 h post-exposure): 0.24% | Conc. per mg wet tissue (Trachea, 12 h post-exposure): 13.20 dpm/mg | Percent tissue distribution (Trachea, 12 h post-exposure): 0.08% | Conc. per mg wet tissue (Trachea, 24 h post-exposure): 6.29 dpm/mg | Percent tissue distribution (Trachea, 24 h post-exposure): 0.04% | Conc. per mg wet tissue (Trachea, 96 h post-exposure): 1.03 dpm/mg | Percent tissue distribution (Trachea, 96 h post-exposure): 0.01% | AUC_%Extrap (Uterus): 17.37% | Terminal elimination half-life (t1/2) (Uterus): 34.85 h | Conc. per mg wet tissue (Uterus, 0.21 h post-exposure): 0.37 dpm/mg | Percent tissue distribution (Uterus, 0.21 h post-exposure): 0.21% | Conc. per mg wet tissue (Uterus, 1.67 h post-exposure): 2.43 dpm/mg | Percent tissue distribution (Uterus, 1.67 h post-exposure): 0.11% | Conc. per mg wet tissue (Uterus, 12 h post-exposure): 0.93 dpm/mg | Percent tissue distribution (Uterus, 12 h post-exposure): 0.06% | Conc. per mg wet tissue (Uterus, 24 h post-exposure): 2.20 dpm/mg | Percent tissue distribution (Uterus, 24 h post-exposure): 0.16% | Conc. per mg wet tissue (Uterus, 96 h post-exposure): 0.37 dpm/mg | Percent tissue distribution (Uterus, 96 h post-exposure): 0.13% | AUC_% extrap (amniotic fluid): 7.8% | AUC_%Extrap (amniotic fluid): 8.11% | Terminal elimination half-life (t1/2) (amniotic fluid): 26.38 h | maternal serum exposure ratio (amniotic fluid): 0.05 | AUC0–96h ratio (brain/MS (maternal serum)): 0.672 | C max ratio (brain/MS (maternal serum)): 0.598 | AUC0–96h ratio (brain/thyroid): 0.276 | C max ratio (brain/thyroid): 0.298 | concentration in brown adipose relative to white adipose (brown vs white adipose): five times higher | biological half-life (dams): less than 2 days | biological half-life (developing fetuses): less than 2 days | AUC0‑∞ ratio (fetus/AF (amniotic fluid)): 5.472 | AUC0–96h ratio (fetus/AF (amniotic fluid)): 5.405 | C max ratio (fetus/AF (amniotic fluid)): 5.767 | AUC0–96h ratio (fetus/MS (maternal serum)): 0.100 | C max ratio (fetus/MS (maternal serum)): 0.135 | AUC0‑∞ ratio (fetus/mammary gland): 46.45 | AUC0–96h ratio (fetus/mammary gland): 43.42 | C max ratio (fetus/mammary gland): 11.47 | AUC0‑∞ ratio (fetus/ovary): 0.078 | AUC0–96h ratio (fetus/ovary): 0.094 | C max ratio (fetus/ovary): 0.163 | AUC0–96h ratio (fetus/pituitary): 0.026 | C max ratio (fetus/pituitary): 0.052 | AUC0‑∞ ratio (fetus/placenta): 0.569 | AUC0–96h ratio (fetus/placenta): 0.538 | C max ratio (fetus/placenta): 0.778 | AUC0‑∞ ratio (fetus/thymus): 0.125 | AUC0–96h ratio (fetus/thymus): 0.152 | C max ratio (fetus/thymus): 0.314 | AUC0‑∞ ratio (fetus/thyroid): 8.805 | AUC0–96h ratio (fetus/thyroid): 8.445 | C max ratio (fetus/thyroid): 8.150 | AUC0‑∞ ratio [6]: 12.59 | AUC0–96h ratio [6]: 12.52 | C max ratio [6]: 2.822 | AUC_% extrap (maternal serum): 14.2% | blood-to-plasma ratio (observed experimental): 0.53 | AUC0–96h ratio (ovary/MS (maternal serum)): 3.043 | C max ratio (ovary/MS (maternal serum)): 1.512 | AUC0–96h ratio (pituitary/MS (maternal serum)): 11.289 | C max ratio (pituitary/MS (maternal serum)): 4.741 | AUC0–96h ratio (pituitary/thymus): 5.933 | C max ratio (pituitary/thymus): 4.114 | AUC_% extrap (placenta): 4.1% | AUC_%Extrap (placenta): 4.14% | Terminal elimination half-life (t1/2) (placenta): 21.11 h | maternal serum exposure ratio (placenta): 0.5 | AUC0‑∞ ratio (placenta/MS (maternal serum)): 0.477 | AUC0–96h ratio (placenta/MS (maternal serum)): 0.536 | C max ratio (placenta/MS (maternal serum)): 0.316 | time at which brown/white adipose concentration ratio reached unity (postexposure): 24 h | amniotic fluid-to-fetus ratio [7]: < 1 | fetus-to-amniotic fluid ratio [7]: > 5 | AUC0‑∞ ratio (thymus/MS (maternal serum)): 2.169 | AUC0–96h ratio (thymus/MS (maternal serum)): 1.903 | C max ratio (thymus/MS (maternal serum)): 1.152 | AUC0‑∞ ratio (thyroid/MS (maternal serum)): 2.387 | AUC0–96h ratio (thyroid/MS (maternal serum)): 2.435 | C max ratio (thyroid/MS (maternal serum)): 2.005 | AUC0‑∞ ratio (uterus/MS (maternal serum)): 0.917 | AUC0–96h ratio (uterus/MS (maternal serum)): 0.888 | C max ratio (uterus/MS (maternal serum)): 0.296 | AUC0‑∞ ratio (uterus/ovary): 0.262 | AUC0–96h ratio (uterus/ovary): 0.292 | C max ratio (uterus/ovary): 0.196
